In PMC12212627, “Machine Learning-Based Virtual Screening of Antibacterial Agents against Methicillin-Susceptible and Resistant Staphylococcus aureus” (Journal of Chemical Information and Modeling, 2024):
Converted amounts (≈) assume the structure as drawn.

Assays:
[1] = system: S. aureus (ATCC n° 29213), MSSA; assay: Broth microdilution (CLSI): screening at 100 μM and MIC, MSSA; assay type: cell-based, Staphylococcus aureus; details: for MIC: broth microdilution, 24 h, 37 °C; for % of growth inhibition, MSSA (ATCC 29123): at the concentration (MIC)
Experimental: (§1) E. coli (ATCC n° […]) – a TEM-1 β-lactamase producing strain, S. aureus (ATCC n° 29213) – herein referred to as MSSA, MRSA (ATCC n° 43300), and two clinical strains of MRSA (n° 5749 and 6154) were used in the biological assays. The antibacterial activity and minimal inhibitory concentration (MIC) of the screened compounds were evaluated with the broth microdilution method in 96-well microplates, according to the Clinical and Laboratory Standards Institute (CLSI) protocol. Initially, compounds were evaluated in a screening assay to identify promising hits. The compounds were dissolved in dimethyl sulfoxide (DMSO) and then diluted in Mueller Hinton broth (MHB; Oxoid, Thermo Scientific, U.K.) to a concentration of 200 μM. After the addition of 100 μL to each well, the same volume of bacterial suspension containing 10^5 CFU/mL was added to each of the previous solutions, resulting in a final compound concentration of 100 μM. A viability control (bacterial suspension only), inhibition controls (MHB containing five times the MIC of penicillin G for MSSA, vancomycin for MRSA strains, and streptomycin for E. coli), a sterility control (medium only), and a vehicle control (DMSO 2% v/v) were included in each assay microplate. After 24 h of incubation at 37 °C, the microplates were visually inspected for inhibition of bacterial growth, and the absorbance at 600 nm of each well was read using a microplate reader spectrophotometer (VersaMax, Molecular Devices, CA). The percentage of growth inhibition was calculated as the percentage of growth reduction compared with the vehicle control. Wells showing no visual bacterial growth (no turbidity) were considered hits. The MIC of the promising compounds in the initial screening were tested as previously described, with a serial dilution of each compound (100–1.56 μM). All conditions were tested in triplicate from at least three independent assays.

[2] = system: MRSA (ATCC n° 43300); assay: Broth microdilution (CLSI): screening at 100 μM and MIC, MRSA reference strain; assay type: cell-based, Staphylococcus aureus; details: for MIC: broth microdilution, 24 h, 37 °C; for % of growth inhibition, MRSA (ATCC 43300): at the concentration given (MIC or 100 μM where MIC >100)
Experimental: as §1

[3] = system: clinical strain of MRSA n° 5749; assay: Broth microdilution (CLSI): screening at 100 μM and MIC, MRSA clinical strain 5749; assay type: cell-based, Staphylococcus aureus; details: for % of growth inhibition, MRSA (5749): at the concentration given (MIC or 100 μM where MIC >100)
Experimental: as §1

[4] = system: clinical strain of MRSA n° 6154; assay: Broth microdilution (CLSI): screening at 100 μM and MIC, MRSA clinical strain 6154; assay type: cell-based, Staphylococcus aureus; details: for MIC: broth microdilution, 24 h, 37 °C; for % of growth inhibition, MRSA (6154): at the concentration given (MIC or 100 μM where MIC >100)
Experimental: as §1

[5] = system: E. coli (ATCC 35218), TEM-1 β-lactamase producing strain; assay: Broth microdilution (CLSI): screening at 100 μM and MIC, E. coli; assay type: cell-based; details: broth microdilution, 24 h, 37 °C
Experimental: as §1

[6] = Cytotoxicity, colorimetric MTT assay; assay type: cell-based; details: African green monkey, Vero (ATCC CCL-81) cells, 72 h incubation
Experimental: As for the cytotoxic concentration of 50% (CC50) determination, the Vero (ATCC CCL-81) cell line was cultured in Eagle’s Minimum Essential Medium (MEM) (Cultilab, Brazil). The medium was supplemented with 5% fetal bovine serum (FBS) (Cultilab, Brazil), in addition to 100 IU/mL penicillin (Cellofarm, Brazil), 100 μg/mL streptomycin (Merck, Germany), and 0.25 μg/mL amphotericin B (Cultilab, Brazil). Cells were seeded in 96-well microplates (4.0 × 10^4 cells per well) and incubated at 37 °C and 5% CO2 atmosphere. After 24 h of incubation, 200 μL of fresh medium containing a serial dilution of the compounds (100–1.56 μM) was added to the plates. Serial dilutions of DMSO were used as vehicle controls. After 72 h of incubation under the same conditions, 100 μL of 3-(4,5-dimethylthiazol-2-yl)–2,5-diphenyltetrazolium bromide (MTT) in MEM (0.5 mg/mL) was added to each well. After 3 h of incubation with MTT (ThermoFischer Scientific), the medium was removed, and 100 μL of DMSO was added to each well to solubilize the formazan crystals. After a brief incubation under shaking for 20 min, the absorbance at 570 nm of each well was read using a spectrophotometer (VersaMax, Molecular Devices). The percentages of inhibition of cell viability were calculated by using the vehicle control. The cytotoxic concentration of 50% (CC50) is defined as the lowest concentration of a given compound that can reduce the viability of cultured cells by 50%. Posteriorly, the selectivity index (SI), that is, the ratio between the CC50 and MIC values of each active compound, was calculated. All conditions were tested in triplicate and at least two independent assays. The overall procedures applied in this work are illustrated in Figure .

[7] = system: MSSA and MRSA strains; assay: Broth microdilution, results summed up over MSSA and MRSA strains; assay type: cell-based, Staphylococcus aureus; details: Staphylococcus aureus; span over the strains evaluated; read-out: MIC values against MSSA and all MRSA strains
Experimental: as §1

[8] = pharmacokinetic properties already determined; cited from earlier work
[9] = Staphylococcus aureus, ATCC 29123 / MSSA
[10] = Staphylococcus aureus, ATCC 43300 / MRSA
[11] = Staphylococcus aureus, MRSA, broth microdilution, 24 h, 37 °C

MIC [1, 9] [µM] | MIC [2, 10] [µM] | MIC [3, 11] [µM] | MIC ([4]; Staphylococcus aureus, MRSA) [µM] | MIC, E. coli (ATCC 35218) [5] | MIC [7] [µM] | SMILES | % of growth inhibition, MSSA (ATCC 29123) [1] [%] | % of growth inhibition, MRSA (ATCC 43300) [2] [%] | % of growth inhibition, MRSA (5749) [3] [%] | % of growth inhibition, MRSA (6154) [4] [%] | CC50 at 72 h [6] [µM] | inhibition at 100 µM ([1]; Staphylococcus aureus, ATCC 29123 / MSSA, at 100 μM, below the MIC, read-out: % of growth inhibition, MSSA (ATCC 29123), second line) [%] | MIC, MRSA (5749) ([3]; broth microdilution, 24 h, 37 °C) | cell permeability [8] | stability in the gastrointestinal tract [8] | inhibition at 50 µM ([2]; Staphylococcus aureus, ATCC 43300 / MRSA, at 50 μM, below the MIC, read-out: % of growth inhibition, MRSA (ATCC 43300), second line) [%] | inhibition at 50 µM ([3]; Staphylococcus aureus, MRSA, at 50 μM, below the MIC, read-out: % of growth inhibition, MRSA (5749), second line) [%] | inhibition at 50 µM ([4]; Staphylococcus aureus, MRSA, at 50 μM, below the MIC, read-out: % of growth inhibition, MRSA (6154), second line) [%]
100 (≈ 52.7 µg/mL) | > 100 | > 100 | > 100 | − | ≥ 100 | CC(=O)O[C@@H]1[C@H](OC(C)=O)[C@H](C)O[C@H](n2cc(COC3=CC(=O)c4ccccc4C3=O)nn2)[C@H]1OC(C)=O [Compound 1, 2-[1-(2,3,4-tri-O-acetyl-6-deoxy-β-L-galactopyranosyl)-1,2,3-triazol-4-(methyl)oxy]-1,4-naphtoquinone] | 99.60 | 70.02 | 41.76 | 50.60 | 33.8 ± 3.44 |  |  |  |  |  |  | 
50 (≈ 31.5 µg/mL) | 100 (≈ 63 µg/mL) | 100 (≈ 63 µg/mL) | 100 (≈ 63 µg/mL) | − | 50 to 100 (≈ 31.5 to 63 µg/mL) | O=C(NCCCOCCCNC(=O)c1ccc(-c2ccc(Br)cc2)o1)c1ccc(-c2ccc(Br)cc2)o1 [Compound 6, N,N′-(oxybis(propane-3,1-diyl))-bis(5-(4-bromophenyl)furan-2-carboxamide)] | > 99.9 | > 99.9 | > 99.9 | > 99.9 | 43.4 ± 4.66 |  |  |  |  | 85.3 | 73.5 | 78.4
50 (≈ 10.6 µg/mL) | 50 (≈ 10.6 µg/mL) | 50 (≈ 10.6 µg/mL) | 50 (≈ 10.6 µg/mL) | − | 50 (≈ 10.6 µg/mL) | C#CCOC1=CC(=O)c2ccccc2C1=O [Compound 3, 2-[(prop-2-yn-1-yl)oxy]-1,4-naphtoquinone] | 96.52 | > 99.9 | > 99.9 | > 99.9 | 21.2 ± 8.89 |  |  |  |  |  |  | 

SMILES | MIC [1, 9] [µM] | MIC [2, 10] [µM] | MIC [3, 11] [µM] | MIC ([4]; Staphylococcus aureus, MRSA) [µM] | MIC, E. coli (ATCC 35218) [5] | MIC [7] [µM] | % of growth inhibition, MSSA (ATCC 29123) [1] [%] | % of growth inhibition, MRSA (ATCC 43300) [2] [%] | % of growth inhibition, MRSA (5749) [3] [%] | % of growth inhibition, MRSA (6154) [4] [%] | CC50 at 72 h [6] [µM] | inhibition at 100 µM ([1]; Staphylococcus aureus, ATCC 29123 / MSSA, at 100 μM, below the MIC, read-out: % of growth inhibition, MSSA (ATCC 29123), second line) [%] | MIC, MRSA (5749) ([3]; broth microdilution, 24 h, 37 °C) | cell permeability [8] | stability in the gastrointestinal tract [8] | inhibition at 50 µM ([2]; Staphylococcus aureus, ATCC 43300 / MRSA, at 50 μM, below the MIC, read-out: % of growth inhibition, MRSA (ATCC 43300), second line) [%] | inhibition at 50 µM ([3]; Staphylococcus aureus, MRSA, at 50 μM, below the MIC, read-out: % of growth inhibition, MRSA (5749), second line) [%] | inhibition at 50 µM ([4]; Staphylococcus aureus, MRSA, at 50 μM, below the MIC, read-out: % of growth inhibition, MRSA (6154), second line) [%]
C=C/C(C)=C\C[C@]1(C)[C@H](C)C[C@H](O)[C@@]23C(=C[C@H](OC(=O)CCC)C[C@@H]12)[C@@H](OC(C)=O)O[C@H]3OC(C)=O [Compound 5, [(1S,3R,5R,6aS,7R,8R,10S,10aS)-1,3-diacetyloxy-10-hydroxy-7,8-dimethyl-7-[(2Z)-3-methylpenta-2,4-dienyl]-1,3,5,6,6a,8,9,10-octahydrobenzo[d][2]benzofuran-5-yl] butanoate] | 200 (≈ 101 µg/mL) | 100 (≈ 50.5 µg/mL) |  | 100 (≈ 50.5 µg/mL) | − |  | 96.43 | > 99.9 |  | > 99.9 |  | 27.4 | − | high | degradation in the gastrointestinal tract |  |  | 
